This note sets out measurements from ChEMBL document CHEMBL1201862, “PubChem BioAssay data set” (2004).

The target of assay [1] is DNA dC->dU-editing enzyme APOBEC-3A (Homo sapiens, UniProt P31941). The assay can be described thus: A3A deaminase inhibition for selectivity – biochemical, dose response (AID 504722). It counts as functional.
Assay [2] has as its target Glucose-6-phosphate 1-dehydrogenase (Homo sapiens, UniProt P11413). The assay can be described thus: inhibition of Homo sapiens G6PD, dose series – biochemical, fluorescence, selectivity assay for P. falciparum G6PD inhibitor project, dose response (AID 504792). It is filed as functional.
The target in a further assay is Hexokinase HKDC1 (Homo sapiens, UniProt Q2TB90). Nature of the assay: activation of HKDC1 glucose phosphorylation – biochemical, W721R variant, dose response (AID 504730). It is filed as functional.
Chain of Hexokinase HKDC1 (Q2TB90 whole entry): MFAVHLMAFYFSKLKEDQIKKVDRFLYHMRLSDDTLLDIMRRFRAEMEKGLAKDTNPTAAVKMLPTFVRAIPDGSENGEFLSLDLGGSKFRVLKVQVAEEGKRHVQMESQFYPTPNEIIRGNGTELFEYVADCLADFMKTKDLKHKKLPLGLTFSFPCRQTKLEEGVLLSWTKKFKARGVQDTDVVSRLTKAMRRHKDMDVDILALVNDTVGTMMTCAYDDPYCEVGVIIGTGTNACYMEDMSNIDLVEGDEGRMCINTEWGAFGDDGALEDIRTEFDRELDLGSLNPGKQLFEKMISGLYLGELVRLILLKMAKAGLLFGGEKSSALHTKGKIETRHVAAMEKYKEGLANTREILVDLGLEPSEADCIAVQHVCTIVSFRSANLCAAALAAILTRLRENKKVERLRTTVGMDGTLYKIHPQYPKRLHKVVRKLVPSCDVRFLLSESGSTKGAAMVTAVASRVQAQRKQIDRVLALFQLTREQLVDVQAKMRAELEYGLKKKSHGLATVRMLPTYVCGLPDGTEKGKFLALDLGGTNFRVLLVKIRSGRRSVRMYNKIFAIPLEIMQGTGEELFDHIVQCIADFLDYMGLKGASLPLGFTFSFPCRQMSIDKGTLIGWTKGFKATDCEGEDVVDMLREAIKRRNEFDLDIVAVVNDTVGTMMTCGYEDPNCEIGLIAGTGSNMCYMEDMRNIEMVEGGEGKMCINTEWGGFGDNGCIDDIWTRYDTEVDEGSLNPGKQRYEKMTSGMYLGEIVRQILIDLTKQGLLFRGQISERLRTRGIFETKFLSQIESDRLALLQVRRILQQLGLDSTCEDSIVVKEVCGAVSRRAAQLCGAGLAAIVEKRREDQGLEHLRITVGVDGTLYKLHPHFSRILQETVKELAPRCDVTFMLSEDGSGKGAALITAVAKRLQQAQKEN
Assay [3] deals with DNA dC->dU-editing enzyme APOBEC-3G (Homo sapiens, UniProt Q9HC16). The assay can be described thus: Dose Response confirmation of small molecule APOBEC3G DNA Deaminase Inhibitors via a fluorescence-based single-stranded DNA deaminase assay. [Related pubchem assays (depositor defined):AID493012, AID493028]. It counts as functional.
Chain of DNA dC->dU-editing enzyme APOBEC-3G (Q9HC16 whole entry): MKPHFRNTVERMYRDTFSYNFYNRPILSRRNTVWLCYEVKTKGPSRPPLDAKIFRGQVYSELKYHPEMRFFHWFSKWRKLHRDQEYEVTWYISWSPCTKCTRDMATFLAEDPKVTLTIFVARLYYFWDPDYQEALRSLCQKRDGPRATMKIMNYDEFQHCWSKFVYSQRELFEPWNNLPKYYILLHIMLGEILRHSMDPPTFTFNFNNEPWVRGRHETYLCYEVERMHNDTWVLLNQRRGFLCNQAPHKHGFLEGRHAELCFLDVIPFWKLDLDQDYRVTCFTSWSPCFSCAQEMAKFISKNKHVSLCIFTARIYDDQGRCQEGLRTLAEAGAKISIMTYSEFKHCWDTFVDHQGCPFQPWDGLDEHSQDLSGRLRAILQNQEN
The target of the next assay is Hexokinase-1 (Homo sapiens, UniProt P19367). Nature of the assay: HK1 enzyme activation by HKDC1 hits – biochemical, selectivity assay for HKDC1 activator project, dose response (AID 504762). It is filed as functional.
Chain of Hexokinase-1 (P19367 whole entry): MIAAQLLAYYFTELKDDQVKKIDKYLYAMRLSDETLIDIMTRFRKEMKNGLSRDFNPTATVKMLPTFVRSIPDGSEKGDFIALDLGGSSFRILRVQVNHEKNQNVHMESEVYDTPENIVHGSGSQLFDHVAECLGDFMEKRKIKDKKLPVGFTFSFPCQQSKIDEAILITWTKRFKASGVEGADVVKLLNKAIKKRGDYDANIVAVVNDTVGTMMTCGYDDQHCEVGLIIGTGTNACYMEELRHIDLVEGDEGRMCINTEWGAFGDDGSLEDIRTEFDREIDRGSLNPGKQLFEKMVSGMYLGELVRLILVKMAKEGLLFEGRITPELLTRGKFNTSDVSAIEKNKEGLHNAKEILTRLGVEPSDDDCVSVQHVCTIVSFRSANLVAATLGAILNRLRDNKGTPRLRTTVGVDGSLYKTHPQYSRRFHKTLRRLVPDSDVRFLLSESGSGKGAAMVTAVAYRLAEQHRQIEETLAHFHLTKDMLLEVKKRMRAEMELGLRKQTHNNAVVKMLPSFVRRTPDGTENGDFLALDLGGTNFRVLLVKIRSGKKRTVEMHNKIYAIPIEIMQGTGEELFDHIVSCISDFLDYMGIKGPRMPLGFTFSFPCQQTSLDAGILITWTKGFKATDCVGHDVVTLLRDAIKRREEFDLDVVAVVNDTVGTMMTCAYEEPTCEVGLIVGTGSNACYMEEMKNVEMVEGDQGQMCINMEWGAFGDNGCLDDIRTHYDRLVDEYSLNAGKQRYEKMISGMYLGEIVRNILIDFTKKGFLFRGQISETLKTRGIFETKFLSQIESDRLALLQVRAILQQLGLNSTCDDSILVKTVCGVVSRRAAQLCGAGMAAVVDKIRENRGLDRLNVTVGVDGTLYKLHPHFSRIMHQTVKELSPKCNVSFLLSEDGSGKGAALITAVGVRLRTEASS
The target of the next assay is Genome polyprotein (dengue virus type 2, UniProt P29990). The assay can be described thus: flavivirus cap methylation enzyme inhibition – biochemical, confirmation dose response, primary screen (AID 588689). It counts as functional.
Chain of Genome polyprotein (P29990 2492-3391 limits assumed): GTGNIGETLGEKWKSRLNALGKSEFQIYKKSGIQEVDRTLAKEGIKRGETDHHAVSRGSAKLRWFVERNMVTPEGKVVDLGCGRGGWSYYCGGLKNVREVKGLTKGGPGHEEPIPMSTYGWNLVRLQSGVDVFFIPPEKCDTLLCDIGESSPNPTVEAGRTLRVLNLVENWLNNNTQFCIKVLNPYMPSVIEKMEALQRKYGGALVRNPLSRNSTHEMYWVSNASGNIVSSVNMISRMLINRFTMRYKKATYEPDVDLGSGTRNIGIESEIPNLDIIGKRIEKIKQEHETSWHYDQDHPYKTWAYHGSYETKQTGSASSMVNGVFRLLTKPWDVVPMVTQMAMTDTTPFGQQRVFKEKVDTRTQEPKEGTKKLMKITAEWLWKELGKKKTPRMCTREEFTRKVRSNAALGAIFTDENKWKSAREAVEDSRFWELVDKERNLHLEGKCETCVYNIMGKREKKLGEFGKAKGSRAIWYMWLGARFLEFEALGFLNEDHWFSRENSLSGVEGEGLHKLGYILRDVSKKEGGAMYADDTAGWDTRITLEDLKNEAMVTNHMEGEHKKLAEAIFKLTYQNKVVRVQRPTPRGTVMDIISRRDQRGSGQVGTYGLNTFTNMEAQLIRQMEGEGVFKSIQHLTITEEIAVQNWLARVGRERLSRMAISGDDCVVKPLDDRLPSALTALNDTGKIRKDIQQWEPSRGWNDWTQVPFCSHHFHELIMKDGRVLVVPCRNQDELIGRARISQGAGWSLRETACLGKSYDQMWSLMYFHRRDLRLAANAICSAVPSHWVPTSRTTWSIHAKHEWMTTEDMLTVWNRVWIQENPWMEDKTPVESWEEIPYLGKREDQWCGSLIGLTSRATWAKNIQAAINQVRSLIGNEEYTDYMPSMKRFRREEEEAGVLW
Assay [4] is described as follows: HGIII-sPLA2 enzyme inhibition potency – biochemical, QFRET, IC50, dose response (AID 743457).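 Further: green fluorescence rise as the enzyme cleaves BODIPY PC-A2 in liposomes.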
Assay [5] concerns the target Dual specificity tyrosine-phosphorylation-regulated kinase 1A (Rattus norvegicus, UniProt Q63470). It is filed as biochemical, Homo sapiens.
Assay [6] can be described thus: THP-1 cell cytotoxicity, dose response, cytotoxicity control for non-replicating M. tuberculosis project (AID 489025). It counts as functional.
A short description of assay [7]: Luminescence Cell-Based Dose Retest to Confirm Inhibitors of Cancer Stem Cells. [Related pubchem assays (depositor defined):AID2717, AID2721]. The conditions noted are these: Homo sapiens. It is filed as functional.
A short description of assay [8]: Vero E6 cell cytotoxicity, dose response, cytotoxicity control for non-replicating M. tuberculosis project, secondary assay (AID 492998). It is filed as functional, VeroE6. The conditions noted are these: Vero C1008.
For assay [9], the target named is T1, Heat shock factor protein 1 (Mus musculus, UniProt P38532).
T1 sequence (P38532 whole entry): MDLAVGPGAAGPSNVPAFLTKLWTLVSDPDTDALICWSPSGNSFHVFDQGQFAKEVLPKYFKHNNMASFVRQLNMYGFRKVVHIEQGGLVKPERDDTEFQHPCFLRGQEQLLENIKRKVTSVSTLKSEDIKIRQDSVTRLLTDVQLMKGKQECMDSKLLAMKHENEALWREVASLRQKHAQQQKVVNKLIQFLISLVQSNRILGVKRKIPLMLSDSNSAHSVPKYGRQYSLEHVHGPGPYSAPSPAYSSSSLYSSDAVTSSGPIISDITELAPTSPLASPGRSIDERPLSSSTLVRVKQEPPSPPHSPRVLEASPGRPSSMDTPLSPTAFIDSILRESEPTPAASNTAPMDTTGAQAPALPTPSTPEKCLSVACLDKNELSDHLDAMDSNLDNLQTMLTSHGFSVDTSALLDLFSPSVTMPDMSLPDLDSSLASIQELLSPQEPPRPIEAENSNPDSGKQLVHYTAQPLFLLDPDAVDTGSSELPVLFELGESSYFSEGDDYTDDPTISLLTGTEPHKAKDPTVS
Nature of the assay: enhancement of HSF1-driven luciferase signal – cell-based, NIH3T3, luminescence, dose retest, confirmation (AID 435004).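 Further: stress induced by proteasome inhibitor MG132 added 30 min after compound; luciferase reporter driven by HSF1 response element in NIH3T3 cells; actives raise luminescence as potentiators of the MG132 stress response.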 It counts as functional.

The nature of a further assay: cells. It is filed as functional.
Another assay concerns CHO. Nature of the assay: CHO cell viability loss, potency – luminescence, cytotoxicity control for TLR9-MyD88 binding inhibitor project, dose response (AID 588339).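 Further: CHO cells stably coexpressing TLR9 and MyD88 fusions from primary screen; compound exposure lasted 48 hours before viability readout.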 It counts as functional, cell-based, hamster. The conditions noted are these: Cricetulus griseus.
Assay [10] concerns the target Heat shock protein HSP 90-alpha (Homo sapiens, UniProt P07900). It counts as functional, organism-based.
Another assay concerns the target Beta Lactamase (Pseudomonas aeruginosa, UniProt Q932Y6). Nature of the assay: BLA reporter interference, concentration series – BLA reporter cells, FRET fluorescence, artefact control for TLR9-MyD88 binding inhibitor project, dose response (AID 588341).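 Further: cell based assay in CHO-K1 cells stably expressing beta-lactamase.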 It counts as cell-based.
Assay [11] is described as follows: Fluorescence-based cell-based high throughput dose response assay for inhibitors of the interaction of nucleotide-binding oligomerization domain containing 2 (NOD2) and the receptor-interacting serine-threonine kinase 2 (RIPK2). It counts as functional. Particulars: Homo sapiens.
Assay [12] can be described thus: NIH-3T3 fibroblast cytotoxicity, dose response, cytotoxicity control, cell-based, fluorescence, Alamar Blue, secondary assay (AID 2327).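 Further: NIH-3T3 mouse fibroblasts cultured with fluconazole at 8 µg/mL.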 It counts as functional.
Assay [13] can be described thus: fluconazole-exposed Candida albicans growth modulators – fluorescence, retest, confirmation (AID 2467). It is filed as functional, cell-based.
Assay [14] in a line: viability of PTEN-deleted HCT116 cells – cell-based, HCT116 PTEN knockout, dose response (AID 1047).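 Further: HCT116 colon tumor cells with PTEN knocked out; cells exposed to compound for 60 hours before readout.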 It is filed as functional.
The nature of assay [15]: viability of HCT116 lacking mutant beta-catenin – cell-based, human colon tumor, dose response (AID 1045).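 Further: HCT116 colon tumor cells with beta catenin knocked out; cells exposed to compound for 60 hours.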 It counts as functional.
A short description of assay [16]: HepG2 cell cytotoxicity, dose response, cytotoxicity control for non-replicating M. tuberculosis project (AID 489018). It is filed as functional. The conditions noted are these: Mycobacterium tuberculosis.
In assay [17] the target is FAD-linked sulfhydryl oxidase ALR (Homo sapiens, UniProt P55789). Nature of the assay: ALR-catalysed DTT oxidation blockers – biochemical, H2O2 detection, luminescence, cherry-pick, dose response (AID 493248).
Chain of FAD-linked sulfhydryl oxidase ALR (P55789 whole entry): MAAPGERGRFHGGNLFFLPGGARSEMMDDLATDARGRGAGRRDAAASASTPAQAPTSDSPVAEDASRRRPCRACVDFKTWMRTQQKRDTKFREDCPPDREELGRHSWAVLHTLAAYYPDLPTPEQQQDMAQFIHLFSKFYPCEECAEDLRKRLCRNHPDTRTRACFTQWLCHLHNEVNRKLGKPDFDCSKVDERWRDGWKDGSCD
Assay [18] deals with T2, Microphthalmia-associated transcription factor (Homo sapiens, UniProt O75030).
T2 sequence (O75030 whole entry): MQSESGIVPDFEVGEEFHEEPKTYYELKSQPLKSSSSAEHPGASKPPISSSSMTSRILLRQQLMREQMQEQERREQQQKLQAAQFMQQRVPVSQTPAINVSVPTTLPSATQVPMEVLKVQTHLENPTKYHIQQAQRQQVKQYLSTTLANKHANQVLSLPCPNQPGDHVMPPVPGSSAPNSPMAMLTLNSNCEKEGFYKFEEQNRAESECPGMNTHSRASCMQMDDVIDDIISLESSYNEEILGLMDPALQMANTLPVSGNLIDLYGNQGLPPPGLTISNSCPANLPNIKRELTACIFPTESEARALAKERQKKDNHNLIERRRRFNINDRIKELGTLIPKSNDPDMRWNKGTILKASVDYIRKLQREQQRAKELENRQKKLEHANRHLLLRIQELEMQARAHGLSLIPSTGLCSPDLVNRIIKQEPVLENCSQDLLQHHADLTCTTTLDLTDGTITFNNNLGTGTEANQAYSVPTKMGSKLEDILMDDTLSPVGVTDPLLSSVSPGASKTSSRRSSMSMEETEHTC
The assay can be described thus: reducers of TRPM1 reporter luminescence, concentration series – cell-based, SK-MEL-5, cherry-picked, set 3, MITF inhibitor project, dose response (AID 493073).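 Further: SK-MEL-5 melanoma cells with luciferase driven by the MITF target TRPM1 promoter.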 It counts as functional.

The subject of another assay is INS1. Nature of the assay: INS-1E survival protection against cytokine death – cell-based, luminescence, retest, dose response (AID 449756).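 Further: cell death triggered by IL-1 beta plus TNF-alpha plus IFN-gamma mixture; protective hits raise ATP signal compared with cytokine alone wells.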 Particulars: Rattus norvegicus. It counts as functional.
The test system of another assay is A-375. The assay can be described thus: proliferation inhibition in MITF-low A375 cells – cell-based, cherry-pick samples, set 2, counter-screen for MITF modulator project, dose response (AID 540335). It is filed as functional. The conditions noted are these: Homo sapiens.
Assay [19] in a line: reduction of Shn3 3'UTR-driven luciferase in osteoblasts – cell-based, Clone20 osteoblasts, firefly luciferase, cherry-picked, dose response (AID 624132).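 Further: firefly luciferase luminescence from reporter carrying the Shn3 3'UTR in osteoblasts.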 It counts as functional.
Assay [20] in a line: loss of viability in HepG2 cells – cell-based, CellTiter-Glo, cherry-picked, cytotoxicity control for Shn3 inhibitor project, dose response (AID 624134). It is filed as functional.
Assay [21] is described as follows: non-specific 3'UTR reporter inhibition in Clone20-Shn3RL – cell-based, Renilla luciferase, cherry-picked, counter-screen for Shn3 inhibitor project, dose response (AID 624133). It counts as functional.
In a further assay the target is Paired box protein Pax-8 (Homo sapiens, UniProt Q06710). Nature of the assay: PAX8 transcriptional activity inhibition in RMG-I – RMG-I cells, luciferase, cherry-pick, dose response (AID 687027).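 Further: luciferase reporter driven by Pax8 target thyroperoxidase promoter measured by SteadyGlo luminescence.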 It is filed as functional, cell-based.
Chain of Paired box protein Pax-8 (Q06710 whole entry): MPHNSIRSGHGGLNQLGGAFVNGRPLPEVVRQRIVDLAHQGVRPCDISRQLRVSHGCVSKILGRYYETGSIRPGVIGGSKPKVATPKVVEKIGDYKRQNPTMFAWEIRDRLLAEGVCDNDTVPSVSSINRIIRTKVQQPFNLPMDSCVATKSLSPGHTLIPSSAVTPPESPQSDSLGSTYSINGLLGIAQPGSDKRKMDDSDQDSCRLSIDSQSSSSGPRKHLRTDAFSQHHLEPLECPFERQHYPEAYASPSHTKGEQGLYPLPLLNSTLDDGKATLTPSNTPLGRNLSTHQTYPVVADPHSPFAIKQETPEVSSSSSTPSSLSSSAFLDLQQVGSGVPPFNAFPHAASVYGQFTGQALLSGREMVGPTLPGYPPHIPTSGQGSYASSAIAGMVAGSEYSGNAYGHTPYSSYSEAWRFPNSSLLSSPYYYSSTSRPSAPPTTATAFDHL

Structures are written as SMILES. The source made the active and inactive calls.

Chain of DNA dC->dU-editing enzyme APOBEC-3A (P31941 whole entry): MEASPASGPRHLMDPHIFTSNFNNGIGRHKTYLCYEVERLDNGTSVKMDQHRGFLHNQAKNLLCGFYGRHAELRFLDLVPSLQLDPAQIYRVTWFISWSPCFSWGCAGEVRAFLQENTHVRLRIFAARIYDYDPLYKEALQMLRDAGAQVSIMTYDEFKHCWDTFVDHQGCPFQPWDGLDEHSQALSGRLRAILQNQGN
Chain of Glucose-6-phosphate 1-dehydrogenase (P11413 whole entry): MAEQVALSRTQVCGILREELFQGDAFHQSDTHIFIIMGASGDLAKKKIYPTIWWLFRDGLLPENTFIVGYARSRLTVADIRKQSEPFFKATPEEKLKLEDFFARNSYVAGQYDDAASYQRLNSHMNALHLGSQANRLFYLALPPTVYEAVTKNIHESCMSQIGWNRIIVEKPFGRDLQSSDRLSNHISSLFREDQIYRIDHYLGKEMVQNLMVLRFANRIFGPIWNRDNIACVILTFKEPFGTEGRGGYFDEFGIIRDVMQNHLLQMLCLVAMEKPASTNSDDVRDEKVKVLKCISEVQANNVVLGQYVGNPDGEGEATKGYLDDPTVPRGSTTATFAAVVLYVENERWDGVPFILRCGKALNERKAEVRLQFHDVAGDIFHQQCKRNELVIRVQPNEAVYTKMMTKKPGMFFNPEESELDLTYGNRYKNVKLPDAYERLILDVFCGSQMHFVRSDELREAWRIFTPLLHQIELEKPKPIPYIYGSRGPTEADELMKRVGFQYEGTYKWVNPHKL
Chain of Beta Lactamase (Q932Y6 whole entry, the tested form may be a part): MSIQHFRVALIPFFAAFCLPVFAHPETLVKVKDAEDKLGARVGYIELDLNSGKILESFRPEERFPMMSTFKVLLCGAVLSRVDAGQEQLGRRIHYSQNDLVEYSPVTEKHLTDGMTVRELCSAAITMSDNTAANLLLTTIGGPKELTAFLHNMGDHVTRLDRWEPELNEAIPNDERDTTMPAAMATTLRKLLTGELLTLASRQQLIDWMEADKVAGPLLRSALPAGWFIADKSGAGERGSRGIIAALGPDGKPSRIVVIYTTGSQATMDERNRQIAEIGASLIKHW

In the case of `COc1cc(N=c2ssnc2Cl)c(OC)cc1Cl`, the IC50 was > 100 µM (inactive) in [1]; 68.8 µM (inactive) in assay [2]; 8.83 µM (active) in [3]; > 100 µM (active) on Genome polyprotein; 92.1 µM (inactive) in assay [4]. The EC50 on Hexokinase HKDC1 is 27.2 µM (inactive); on Hexokinase-1 it was 41.9 µM (inactive).
As to `Cc1nc2c(ccc3nc(NC(=O)Cc4ccccc4)sc32)s1`, in assay [5], the AC50 is 730 nM (active).
Turning to `C=CCN1C(=O)/C(=C2/C(=O)Nc3ccccc32)c2ccccc21`, the CC50 in assay [6] was 19.7 µM (active); in assay [8] it was 3.31 µM (active). Besides, the AC50 in assay [7] was 4.32 µM (active); in assay [10], 1.17 µM (active). Also, the EC50 in assay [9] was 8.91 µM (active). The IC50 is 0.4 µM (active) in the assay “cells”, 3.64 µM (active) in the assay with CHO, > 49.8 µM (inactive) on Beta Lactamase and 2.1 µM (active) in [11].
In the case of `O=C(c1ccccc1)C(CN1CCCC1)c1ccccc1` (stereo not drawn), the EC50 in [12] is > 160 µM (inactive); in assay [13], 292 nM (active); in assay [14], 2.82 µM (active); in assay [15], 1.88 µM (active). The CC50 was 9.86 µM (active) in assay [6], 14.7 µM (active) in assay [16] and 9.26 µM (active) in [8]. Also, the AC50 is 3.73 µM (active) in assay [17]; 5.33 µM (active) in assay [18]; 4.07 µM (active) with INS1; 25.2 µM (active) in the assay with A-375; 10.7 µM (active) in assay [19]; 17.4 µM (active) in assay [20]. Besides, the AC50 in [21] was 6.34 µM (active); at Paired box protein Pax-8, 4.88 µM (active). The IC50 in “cells” is 8.41 µM (active).
